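Five concentrations, 48 hours, 96-well plates. GI50 is the concentration that inhibits growth by half.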 Calls of active or inactive are those of the source. No stated cut-off is given here; in the data, active = GI50 up to about 1.1 µM and inactive = higher.
What was measured:
Experiment in all cases: growth of human tumour cells (NCI), 48 h
786-0 = tested on: 786-0
A498 = tested on: A498
A549 = tested on: A549
ACHN = tested on: ACHN
BT-549 = tested on: BT-549
CAKI-1 = tested on: CAKI-1
CCRF-CEM = tested on: CCRF-CEM
COLO 205 = tested on: COLO 205
DU-145 = tested on: DU-145
EKVX = tested on: EKVX
HCC 2998 = tested on: HCC 2998
HCT-116 = tested on: HCT-116
HCT-15 = tested on: HCT-15
HOP-62 = tested on: HOP-62
HOP-92 = tested on: HOP-92
HT-29 = tested on: HT-29
Hs-578T = tested on: Hs-578T
IGROV-1 = tested on: IGROV-1
K562 = tested on: K562
KM12 = tested on: KM12
M14 = tested on: M14
MCF7 = tested on: MCF7
MDA-MB-231 = tested on: MDA-MB-231
MDA-MB-435 = tested on: MDA-MB-435
MDA-N = tested on: MDA-N
MOLT-4 = tested on: MOLT-4
NCI-H226 = tested on: NCI-H226
NCI-H23 = tested on: NCI-H23
NCI-H460 = tested on: NCI-H460
NCI-H522 = tested on: NCI-H522
NCI/ADR-RES = tested on: NCI/ADR-RES
OVCAR-3 = tested on: OVCAR-3
OVCAR-4 = tested on: OVCAR-4
OVCAR-5 = tested on: OVCAR-5
OVCAR-8 = tested on: OVCAR-8
PC-3 = tested on: PC-3
RPMI-8226 = tested on: RPMI-8226
RXF 393 = tested on: RXF 393
SF-268 = tested on: SF-268
SF-295 = tested on: SF-295
SF-539 = tested on: SF-539
SK-MEL-28 = tested on: SK-MEL-28
SK-MEL-2 = tested on: SK-MEL-2
SK-MEL-5 = tested on: SK-MEL-5
SK-OV-3 = tested on: SK-OV-3
SN12C = tested on: SN12C
SNB-19 = tested on: SNB-19
SNB-75 = tested on: SNB-75
SR = tested on: SR
SW-620 = tested on: SW-620
T47D = tested on: T47D
TK-10 = tested on: TK-10
U-251 = tested on: U-251
UACC-257 = tested on: UACC-257
UACC-62 = tested on: UACC-62
UO-31 = tested on: UO-31
HL-60 = tested on: HL-60
LOX IMVI = tested on: LOX IMVI
Malme-3M = tested on: Malme-3M

## N#CCCN(CCC#N)c1ccc(C(=N/c2ccc(F)cc2)/N=N/c2ccccc2)cc1
786-0
  GI50: > 100 µM (inactive)
A498
  GI50: > 100 µM (inactive)
A549
  GI50: 37.8 µM (inactive)
ACHN
  GI50: > 100 µM (inactive)
BT-549
  GI50: 34 µM (inactive)
CAKI-1
  GI50: > 100 µM (inactive)
CCRF-CEM
  GI50: < 0.01 µM (active)
COLO 205
  GI50: > 100 µM (inactive)
DU-145
  GI50: > 100 µM (inactive)
EKVX
  GI50: > 100 µM (inactive)
HCC 2998
  GI50: > 100 µM (inactive)
HCT-116
  GI50: > 100 µM (inactive)
HCT-15
  GI50: > 100 µM
HOP-62
  GI50: > 100 µM (inactive)
HOP-92
  GI50: > 100 µM (inactive)
HT-29
  GI50: > 100 µM (inactive)
Hs-578T
  GI50: > 100 µM (inactive)
IGROV-1
  GI50: > 100 µM (inactive)
K562
  GI50: > 100 µM (inactive)
KM12
  GI50: 35.5 µM (inactive)
M14
  GI50: > 100 µM (inactive)
MCF7
  GI50: > 100 µM (inactive)
MDA-MB-231
  GI50: 82.6 µM (inactive)
MDA-MB-435
  GI50: > 100 µM (inactive)
MDA-N
  GI50: > 100 µM (inactive)
MOLT-4
  GI50: > 100 µM (inactive)
NCI-H226
  GI50: > 100 µM (inactive)
NCI-H23
  GI50: 96.8 µM (inactive)
NCI-H460
  GI50: 60.1 µM (inactive)
NCI-H522
  GI50: 21.7 µM (inactive)
NCI/ADR-RES
  GI50: > 100 µM (inactive)
OVCAR-3
  GI50: 95.3 µM (inactive)
OVCAR-4
  GI50: 93.5 µM (inactive)
OVCAR-5
  GI50: > 100 µM (inactive)
OVCAR-8
  GI50: > 100 µM (inactive)
PC-3
  GI50: > 100 µM (inactive)
RPMI-8226
  GI50: > 100 µM (inactive)
RXF 393
  GI50: 2.67 µM (inactive)
SF-268
  GI50: > 100 µM (inactive)
SF-295
  GI50: 32.8 µM (inactive)
SF-539
  GI50: > 100 µM (inactive)
SK-MEL-28
  GI50: > 100 µM (inactive)
SK-MEL-2
  GI50: 93.3 µM (inactive)
SK-MEL-5
  GI50: 83.6 µM (inactive)
SK-OV-3
  GI50: > 100 µM (inactive)
SN12C
  GI50: > 100 µM (inactive)
SNB-19
  GI50: > 100 µM (inactive)
SNB-75
  GI50: 57.5 µM (inactive)
SR
  GI50: 33 µM (inactive)
SW-620
  GI50: > 100 µM (inactive)
T47D
  GI50: 15.1 µM (inactive)
TK-10
  GI50: > 100 µM (inactive)
U-251
  GI50: 50.9 µM (inactive)
UACC-257
  GI50: 60.5 µM (inactive)
UACC-62
  GI50: > 100 µM (inactive)
UO-31
  GI50: > 100 µM (inactive)

## CN(C)/C=C(\C(=O)c1ccccc1)n1nc(-c2ccccc2)cc1-c1ccccc1
786-0
  GI50: > 10 µM (inactive)
A498
  GI50: > 10 µM (inactive)
A549
  GI50: > 10 µM (inactive)
ACHN
  GI50: > 10 µM (inactive)
BT-549
  GI50: > 10 µM (inactive)
CAKI-1
  GI50: > 10 µM (inactive)
CCRF-CEM
  GI50: > 10 µM (inactive)
COLO 205
  GI50: > 10 µM (inactive)
DU-145
  GI50: > 10 µM (inactive)
EKVX
  GI50: > 10 µM (inactive)
HCC 2998
  GI50: > 10 µM (inactive)
HCT-116
  GI50: > 10 µM (inactive)
HCT-15
  GI50: > 10 µM
HL-60
  GI50: > 10 µM (inactive)
HOP-62
  GI50: > 10 µM (inactive)
HOP-92
  GI50: 7.38 µM (inactive)
HT-29
  GI50: > 10 µM (inactive)
Hs-578T
  GI50: > 10 µM (inactive)
IGROV-1
  GI50: > 10 µM (inactive)
KM12
  GI50: > 10 µM (inactive)
LOX IMVI
  GI50: > 10 µM (inactive)
M14
  GI50: > 10 µM (inactive)
MCF7
  GI50: > 10 µM (inactive)
MDA-MB-231
  GI50: > 10 µM (inactive)
MDA-MB-435
  GI50: > 10 µM (inactive)
MDA-N
  GI50: > 10 µM (inactive)
MOLT-4
  GI50: > 10 µM (inactive)
Malme-3M
  GI50: > 10 µM (inactive)
NCI-H226
  GI50: > 10 µM (inactive)
NCI-H23
  GI50: > 10 µM (inactive)
NCI-H460
  GI50: > 10 µM (inactive)
NCI-H522
  GI50: > 10 µM (inactive)
NCI/ADR-RES
  GI50: > 10 µM (inactive)
OVCAR-3
  GI50: > 10 µM (inactive)
OVCAR-4
  GI50: > 10 µM (inactive)
OVCAR-5
  GI50: > 10 µM (inactive)
OVCAR-8
  GI50: > 10 µM (inactive)
PC-3
  GI50: > 10 µM (inactive)
RPMI-8226
  GI50: > 10 µM (inactive)
RXF 393
  GI50: > 10 µM (inactive)
SF-268
  GI50: > 10 µM (inactive)
SF-295
  GI50: > 10 µM (inactive)
SF-539
  GI50: > 10 µM (inactive)
SK-MEL-28
  GI50: > 10 µM (inactive)
SK-MEL-2
  GI50: > 10 µM (inactive)
SK-MEL-5
  GI50: > 10 µM (inactive)
SK-OV-3
  GI50: > 10 µM (inactive)
SN12C
  GI50: > 10 µM (inactive)
SNB-19
  GI50: > 10 µM (inactive)
SR
  GI50: > 10 µM (inactive)
SW-620
  GI50: > 10 µM (inactive)
T47D
  GI50: > 10 µM (inactive)
TK-10
  GI50: > 10 µM (inactive)
U-251
  GI50: > 10 µM (inactive)
UACC-257
  GI50: > 10 µM (inactive)
UACC-62
  GI50: > 10 µM (inactive)
